Source: patent US20250186734A1, “METHODS AND SYSTEMS FOR AUTOMATED NEUR[…] TO EXTEND RELIEF OF TREATMENT-RESISTANT MENTAL DISORDERS” (UNIVERSITY OF PITTSBURGH-OF THE COMMONWEALTH SYSTEM OF …, priority 2022, published 2025)

Experiments:
[1] = test system: patients with treatment-resistant depression; experiment: Randomized controlled trial of ketamine infusion and automated self-association training (ASAT/NT): MADRS depression severity; assay type: in vivo, human
Description: Participants. To achieve the initial recruitment target of n=150 patients, the study enrolled and randomized n=154 patients, continuing enrollment until a final sample was acquired that included the full target of n=150 patients who completed, at a minimum, (1) an infusion day, (2) a 24-hour assessment visit, and (3) ≥75% of intended Cognitive Training (active or sham NT) visits. All n=154 randomized patients were included in the reported intent-to-treat analyses. In particular, 154 adult (age 18-60) patients reporting moderate-to-severe levels of depression [Montgomery-Asberg Depression Rating Scale (MADRS; [Montgomery S A, Asberg M: A new depression scale designed to be sensitive to change. Br J Psychiatry. 1979; 134:382-9]) score 25], lower-than-normative self-reported self-esteem [i.e., scoring outside of 1SD from the normative mean on the Cognitive Triad Inventory [Beckham E E, Leber W R, Watkins J T, Boyer J L, Cook J B: Development of an instrument to measure Beck's cognitive triad: the Cognitive Triad Inventory. J Consult Clin Psychol. 1986; 54(4):566-7]“self” subscale [Anderson K W, Skidmore J R: Empirical analysis of factors in depressive cognition: the cognitive triad inventory. J Clin Psychol. 1995; 51(5):603-9; Possel P: Cognitive Triad Inventory (CTI): psychometric properties and factor structure of the German translation. J Behav Ther Exp Psychiatry. 2009; 40(2):240-7] and/or the Rosenberg Self-Esteem Scale], and at least one failed, adequate trial of an FDA-approved antidepressant medication in the current depressive episode (per Antidepressant Treatment Response Questionnaire; ATRQ [Chandler G M, losifescu DV, Pollack M H, Targum S D, Fava M: RESEARCH: Validation of the Massachusetts General Hospital Antidepressant Treatment History Questionnaire (ATRQ). CNS Neurosci Ther. 2010; 16(5):322-5]), were recruited and randomized. Any existing depression treatment regimens were required to be stably maintained beginning 4 weeks prior to screening and throughout the trial. See FIG. 10, Table S1 and Examples 6-8 below for sample characteristics.
Assessment Timeline. An experienced, Master's level clinical rater (CRS) administered the MADRS, the study's pre-specified primary endpoint throughout the acute (30-day) study period, to assess overall depression severity. The measure was repeated at screening (used for eligibility determinations only), pre-infusion baseline (infusion −1 hour; the clinical rater then left and was not present during any intervention procedure), infusion +24 hours (prior to the first session of active/sham NT), +5, +12, +21, and +30 days. […] This study also contemplates including and analyzing neurocognitive (e.g., neuroimaging; performance-based) assessments of ketamine's impact. Adequacy of both patient and rater blinding, for both infusion and NT allocation, was assessed by self-report using a 0-100 sliding scale (0=definitely placebo/sham; 50=1 don't know; 100=definitely ketamine/active) at infusion+30 days.
Interventions. A randomization table using permuted blocks of 3 or 6, stratified by (1) biological sex at birth and (2) modest vs. severe treatment resistance (severe=≥3 FDA-approved antidepressant trials in episode, per ATRQ), was generated by an independent statistical consultant at study start and maintained by the study pharmacist, who, at the point of randomization, conveyed the NT allocation (but not the infusion allocation) to a single study staff member who was assigned to that patient. This single staff member was tasked with opening the correct computer program to deliver the NT sessions to that patient, but was not involved in, nor present for, any outcome ratings. Blinding for all other study personnel was maintained until after the final patient's Day 30 assessment was complete.
Infusion. Participants were randomized 2:1 to ketamine (0.5 mg/kg over 40 min) or saline (50 ml 0.9% Sodium Chloride over 40 min) infusion. […]

[2] = test system: patients with treatment-resistant depression; experiment: Adverse event monitoring after infusion in the trial; assay type: in vivo, human; conditions: 0.5 mg/kg over 40 min infusion, monitoring for 4 hours post-infusion
Method: Infusion. Participants were randomized 2:1 to ketamine (0.5 mg/kg over 40 min) or saline (50 ml 0.9% Sodium Chloride over 40 min) infusion. All infusions were administered by blinded, licensed nurses in a medical hospital setting with a linked ACLS-certified team, with blinded study physician (RHH) oversight and safety/adverse event monitoring sustained for 4-hours post-infusion.

depressed patients = conditions: cited from earlier work
[3] = 24 hours post-infusion, ketamine vs saline

Q: For `CNC1(c2ccccc2Cl)CCCCC1=O` (centres unmarked) [ketamine], which “remitter rate (MADRS≤9)” value ([1]; 24 hours post-infusion) is on record?
A: The value was 28%.

Q: And the “responder rate (≥50% decrease from pre-infusion MADRS baseline)” value ([1]; 24 hours post-infusion)?
A: Its value is 52%.

Q: And the NNT for remission [1, 3]?
A: The NNT for remission was 4.2.

Q: And the “number-needed-to-treat (NNT) for response” value [1, 3]?
A: The value was 3.7.

Q: And the “MADRS total depression score, group by time interaction, standardized β” value ([1]; infusion phase, pre-infusion to 24 hours post-infusion, ketamine 0.5 mg/kg over 40 min vs saline)?
A: Its value is −1.30.

Q: What about the “duration of the rapid antidepressant effect of a single infusion extended by Cognitive Training” value ([1]; single ketamine infusion followed by 8 sessions of Cognitive Training) of the same compound?
A: The value was “at least 30 days”.

Q: And the adverse events [2]?
A: The adverse events was “mild-to-moderate, time-limited”.

Q: What about the “response rates in depressed patients” value (depressed patients; as early as 2 hours post-ketamine) of the same compound?
A: Its value is 55-80%.

Q: What about the “time within which symptoms are dramatically reduced” value (depressed patients; intravenous ketamine) of the same compound?
A: The value was 2 to 24 h.

Q: What about the “duration of improvements provided by a single infusion in isolation” value (depressed patients; prior published work) of the same compound?
A: The value was 1-2 week.

Q: And the “time after which effects of a single infusion dissipate” value (depressed patients; single infusion)?
A: Its value is 3 to 7 days.
